The source of these data is paper PMC9687805 (Biomolecules, 2022).

Where “and” joins values, the source holds several entries; their conditions need not be identical. Identical values can stand only once.

Series [1] deals with porcine liver CES. Nature of the series: CES inhibition, 4-nitrophenyl acetate hydrolysis. The note with it: compound 20 μM; mean ± SEM, n = 3; n.a. = not active.
Description: Final enzyme and substrate (4-nitrophenyl acetate) concentrations were 0.02 unit/mL and 1 mM, respectively. Assays were carried out with a blank containing all constituents except porcine CES to assess non-enzymatic hydrolysis. Measurements were performed with a FLUOStar Optima microplate reader (BMG Labtech, Ortenberg, Germany). Compounds were dissolved in DMSO; the incubation mixture contained 2% (v/v) solvent. The primary evaluation of the inhibitory activity of the compounds was performed by determining the degree of the enzyme inhibition at a compound concentration of 20 µM. For this, a sample of the corresponding enzyme was incubated with the test compound for 5 min; then the enzyme residual activity was determined. Each experiment was performed in triplicate. […] Substrate was then added and residual enzyme activity relative to an inhibitor-free control was measured using a FLUOStar Optima microplate reader.
Series [2] deals with T1, EeAChE PAS (Electrophorus electricus, UniProt O42275).
T1 construct: purchased Sigma-Aldrich type VI-S; host or cells: electric eel
T1 sequence (O42275 24-633): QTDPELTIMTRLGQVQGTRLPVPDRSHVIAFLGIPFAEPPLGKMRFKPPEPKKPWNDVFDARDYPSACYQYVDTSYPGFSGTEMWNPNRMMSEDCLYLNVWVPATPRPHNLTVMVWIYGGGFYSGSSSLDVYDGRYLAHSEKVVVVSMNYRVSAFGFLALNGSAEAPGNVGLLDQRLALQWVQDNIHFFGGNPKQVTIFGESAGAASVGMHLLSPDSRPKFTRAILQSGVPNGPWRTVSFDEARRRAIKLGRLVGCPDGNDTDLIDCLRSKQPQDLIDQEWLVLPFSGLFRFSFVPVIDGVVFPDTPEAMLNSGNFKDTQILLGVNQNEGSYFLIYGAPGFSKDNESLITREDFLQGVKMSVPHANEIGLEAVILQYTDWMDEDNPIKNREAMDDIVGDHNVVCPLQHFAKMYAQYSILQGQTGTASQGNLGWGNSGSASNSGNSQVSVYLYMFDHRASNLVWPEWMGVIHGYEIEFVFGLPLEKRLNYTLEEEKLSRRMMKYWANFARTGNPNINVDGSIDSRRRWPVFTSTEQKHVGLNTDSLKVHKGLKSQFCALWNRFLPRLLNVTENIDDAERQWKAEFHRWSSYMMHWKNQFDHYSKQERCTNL
Nature of the series: biochemical. The series is classed as binding. The note with it: 0.25 h; compound 20 μM, EeAChE 7 μM, propidium iodide 8 μM; n.a. = not active; read-out: % Displacement of Propidium from the EeAChE PAS at 20 μM. The protocol:
Electrophorus electricus (EeAChE) (electric eel, type VI-S, lyophilized powder, Sigma-Aldrich, St. Louis, MO, USA) was used owing to its high degree of purification, high activity, and lower cost than human AChE (hAChE). […] To determine the degree of displacement (% displacement) of propidium from the PAS of AChE, EeAChE (final concentration, 7 μM) was incubated with the test compound at a concentration of 20 μM in 1 mM Tris-HCl buffer pH 8.0, 25 °C, for 15 min. Then, propidium iodide solution (final concentration, 8 μM) was added, the samples were incubated for 15 min, and the fluorescence spectrum (530 nm (excitation) and 600 nm (emission)) was taken. […] The blank contained propidium iodide of the same concentration in 1 mM Tris-HCl buffer, pH 8.0 at 25 °C. The measurements were carried out in triplicate on a FLUOStar Optima microplate reader (LabTech, Ortenberg, Germany), and the results were calculated by the following formula:% Displacement = 100 − (IFAChE + Propidium + inhibitor / IFAChE + Propidium) × 100 (1) where IFAChE + Propidium is the fluorescence intensity of the propidium associated with AChE in the absence of the test compound (taken as 100%), and IFAChE + Propidium + inhibitor is the fluorescence intensity of the propidium associated with AChE in the presence of the test compound.

The target in series [3] is T2, equine serum BChE (Equus caballus, UniProt P81908).
T2 construct: purchased Sigma-Aldrich; host or cells: equine serum
T2 sequence (P81908 whole entry): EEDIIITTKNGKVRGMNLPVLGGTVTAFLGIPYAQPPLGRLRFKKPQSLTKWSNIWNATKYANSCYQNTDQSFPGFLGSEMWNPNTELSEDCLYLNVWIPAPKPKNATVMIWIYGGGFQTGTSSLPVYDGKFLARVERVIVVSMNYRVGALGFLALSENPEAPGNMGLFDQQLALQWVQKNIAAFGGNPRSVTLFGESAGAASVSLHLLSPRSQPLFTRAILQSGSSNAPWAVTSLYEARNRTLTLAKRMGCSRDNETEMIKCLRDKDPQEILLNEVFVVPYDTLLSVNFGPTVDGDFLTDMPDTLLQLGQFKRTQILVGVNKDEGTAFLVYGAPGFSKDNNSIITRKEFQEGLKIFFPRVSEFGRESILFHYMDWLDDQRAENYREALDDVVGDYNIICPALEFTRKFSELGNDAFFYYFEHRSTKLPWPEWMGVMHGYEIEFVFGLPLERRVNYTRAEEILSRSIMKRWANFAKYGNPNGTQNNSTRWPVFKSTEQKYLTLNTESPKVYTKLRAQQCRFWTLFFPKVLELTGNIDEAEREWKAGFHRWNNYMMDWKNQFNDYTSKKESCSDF
Nature of the series: Kinetic study of BChE inhibition (Lineweaver-Burk). The series is classed as biochemical. Here is the method: (§1) Mechanisms of human erythrocyte AChE and equine serum BChE inhibition were assessed via a thorough analysis of enzyme kinetics. Residual activity was measured following 5 min incubation at 25 °C with three increasing concentrations of inhibitor and six decreasing substrate concentrations.

For series [4], the target named is T3, Human erythrocyte AChE (Homo sapiens, UniProt P22303).
T3 construct: purchased Sigma-Aldrich; host or cells: human erythrocytes
T3 sequence (P22303 32-617 isoform P22303-2 limits assumed): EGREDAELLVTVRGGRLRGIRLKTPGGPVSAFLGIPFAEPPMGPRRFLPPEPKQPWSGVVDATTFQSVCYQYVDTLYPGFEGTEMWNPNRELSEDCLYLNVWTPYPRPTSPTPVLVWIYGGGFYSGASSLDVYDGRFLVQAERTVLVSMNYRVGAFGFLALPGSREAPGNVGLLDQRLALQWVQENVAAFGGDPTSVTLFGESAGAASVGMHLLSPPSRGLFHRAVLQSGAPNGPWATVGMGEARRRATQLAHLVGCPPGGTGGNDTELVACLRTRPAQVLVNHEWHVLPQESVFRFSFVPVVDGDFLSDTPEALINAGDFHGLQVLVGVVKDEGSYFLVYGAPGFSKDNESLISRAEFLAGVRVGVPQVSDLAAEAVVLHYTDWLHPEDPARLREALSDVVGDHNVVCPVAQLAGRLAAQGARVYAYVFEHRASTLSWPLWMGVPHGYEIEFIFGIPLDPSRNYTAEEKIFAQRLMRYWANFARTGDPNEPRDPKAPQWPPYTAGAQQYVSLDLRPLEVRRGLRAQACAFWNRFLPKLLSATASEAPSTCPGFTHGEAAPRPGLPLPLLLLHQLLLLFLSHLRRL
Nature of the series: Kinetic study of AChE inhibition (Lineweaver-Burk). The class given is biochemical. Here is the method: as §1

Series [5] can be described thus: ABTS radical cation scavenging activity assay. Set-up: key to ABTS•+-scavenging activity, TEAC: ratio of slopes, tested compound vs Trolox (Trolox = 1). The note with it: n=3, 1 h, 30 °C; for ABTS•+-scavenging activity, TEAC: Trolox equivalent antioxidant capacity, mean ± SEM; for IC50: concentration for 50% reduction of ABTS radical cation. The protocol:
Radical scavenging activity of the compounds was evaluated by the ABTS radical cation (ABTS^•+) scavenging assay showing the ability of the compounds to decolorize the ABTS^•+ solution [86] with some modifications. Trolox was used as the antioxidant standard; ascorbic acid was used as the comparison compound. All tested compounds and standards were dissolved in DMSO.
The solution of ABTS^•+ was produced by mixing 7 mM ABTS aqueous solution with 2.45 mM potassium persulfate aqueous solution in equal quantities and allowing them to react for 12–16 h at room temperature in the dark. Radical scavenging capacity of the compounds was analyzed by mixing 10 µL of compound with 240 µL of ABTS^•+ working solution in ethanol (100 µM final concentration), and after 1 h of incubation at 30 °C the decrease in absorbance was measured spectrophotometrically at 734 nm using a Bio-Rad xMark microplate UV/VIS spectrophotometer (Bio-Rad, Hercules, CA, USA). The compounds were tested in the concentration range 5 × 10^−7–1 × 10^−4 M. Ethanol blanks were run in each assay. Values were obtained from five replicates of each sample and three independent experiments.
Antioxidant activity was reported as Trolox equivalent antioxidant capacity (TEAC values), consisting of the ratio between the slopes obtained from the linear correlation for concentrations of the tested compounds and Trolox with absorbance of ABTS radical. […] The calculations were carried out using Origin 6.1 for Windows (OriginLab, Northampton, MA, USA). Results are presented as mean ± SEM calculated using GraphPad Prism version 6.05 for Windows, GraphPad Software (San Diego, CA, USA).

Series [6] can be described thus: Ferric reducing antioxidant power (FRAP) assay. The following applies: Trolox equivalents; n=3, 1 h, 37 °C; mean ± SEM. Here is the method: The FRAP (Ferric Reducing Antioxidant Power) assay measures the ability of antioxidants to reduce the ferric 2,4,6-tripyridyl-s-triazine complex [Fe(TPTZ)2]^3+ to the intensely blue-colored ferrous complex [Fe(TPTZ)2]^2+ with an absorption maximum at λ = 593 nm. The reducing ability of a compound is an indicator of its potential antioxidant activity.
The ferric reducing ability of the compounds was determined by a previously described method as a microplate-adapted version described in [42]. 2,4,6-tris(pyridin-2-yl)-1,3,5-triazine (TPTZ), FeCl3·6H2O, Trolox, ascorbic acid and DMSO were obtained from Sigma-Aldrich Chemical Co (St. Louis, MO, USA). The FRAP reagent was prepared by mixing acetate buffer (0.3 M, pH 3.6), TPTZ (10 mM in 40 mM HCl) and FeCl3·6H2O (20 mM in distilled water) in a ratio of 10:1:1 immediately before use. Compounds were dissolved in DMSO and tested in the concentration range of 1×10^−6–1×10^−4 M. The solvent content in the reaction mixture was 4% (v/v). The test compounds (10 µL) were added to the FRAP reagent solution (240 µL) and mixed thoroughly. The reaction was carried out at 37 °C in the dark, the incubation time was 1 h. The absorbance at 600 nm was monitored spectrophotometrically by a FLUOStar OPTIMA microplate reader (BMG Labtech, Germany) at 37 °C. Trolox was used as a standard antioxidant, ascorbic acid as a reference compound. Values were obtained from four replicates of each sample and three independent experiments.
The ferric reducing ability of compounds was expressed as TE units (antioxidant activity in Trolox equivalent) with the values calculated as the ratio of the concentrations of Trolox and the test compound resulting in the same effect.

The target of series [7] is T2, equine serum BChE. Nature of the series: biochemical. The following applies: equine serum BChE; 5 min incubation, 25 °C, pH 7.5; mean ± SEM, n = 3; read-out: Inhibitory activity against BChE, IC50. The protocol: (§2) The assay solution consisted of 0.1 M K/Na phosphate buffer pH 7.5, 25 °C, 0.33 mM DTNB, 0.02 unit/mL AChE or BChE, and 1 mM substrate (ATCh or BTCh, respectively). Reagent blanks consisted of reaction mixtures without substrates.
(§3) Each experiment was performed in triplicate.

Series [8] has as its target T3, Human erythrocyte AChE. Briefly: biochemical. The note with it: human erythrocyte AChE; 5 min incubation, 25 °C, pH 7.5; mean ± SEM, n = 3; read-out: Inhibitory activity against AChE, IC50. The protocol:
as §2, §3

Details of series [9]: method as in PMID 33831780. The following applies: cited from earlier work.
The subject of series [10] is porcine liver CES. Also on record: method as in PMID 33831780. The note with it: cited from earlier work.
Series [11] can be described thus: Metal-chelating properties by UV-Vis spectrometry in acetonitrile. The series is classed as physicochemical. The note with it: compound 40 µM, metal 40 µM, 25 °C, red shift of absorbance. The protocol: The complexing studies were made in acetonitrile at 25 °C using a UV–vis spectrophotometer Shimadzu UV-2600 (Shimadzu Corporation, Kyoto, Japan) with wavelength ranging from 190 to 600 nm. Solutions (200 µM in acetonitrile) of the following metals compounds were prepared in volumetric flasks: FeCl2·4H2O (99%, Acros Organics by Thermo Fisher Scientific (Kandel, Germany)), CuCl2 (98%, Alfa Aesar by Thermo Fisher Scientific (Kandel, Germany)), or Zn(NO3)2·6H2O (98%, Alfa Aesar by Thermo Fisher Scientific (Kandel, Germany). Solutions of the test compounds were also prepared in acetonitrile at 400 µM concentrations. To a mixture of 0.5 mL test compound solution (40 μM final concentration) and 3.5 mL acetonitrile, 1 mL of the metal solution (CuCl2, FeCl2·4H2O, or Zn(NO3)2·6H2O; 40 µM final concentration) was added. The solution was incubated at 25 °C for 30 min and then the absorption spectra were recorded at 25 °C in a 1 cm quartz cell. The control was prepared by mixing 0.5 mL tested compound solution and 4.5 mL acetonitrile.

The mark [12] stands for this setting: Lineweaver-Burk plot, changes in Km and Vmax.

Turning to `CC(=O)C(/N=N/c1ccc(C)cc1)=C(\C)NCCCCCCNc1c2c(nc3ccccc13)CCCC2` [6b], the “Inhibitory activity against CES, % inhibition at 20 μM” value in series [1] came out at 29.0 ± 0.1%. Moreover, the inhibition at 20 µM in series [2] is 19 ± 1.3%. The “Type of BChE inhibition” value in [3] (setting [12]) is listed as “mixed type of inhibition”. For the same compound, the “αKi (noncompetitive component), BChE” value in series [3] (mixed type inhibition) came to 0.224 ± 0.022 µM. The Ki in series [3] (mixed type inhibition, read-out: Ki (competitive component), BChE) worked out at 95 ± 8 nM; in series [4] (mixed type inhibition, read-out: Ki (competitive component), AChE), 254 ± 18 nM. Moreover, in series [4] (setting [12]), the “Type of AChE inhibition” value is given as “mixed type of inhibition”. Moreover, the “αKi (noncompetitive component), AChE” value in [4] (mixed type inhibition) was 0.473 ± 0.041 µM. Also, the “ABTS•+-scavenging activity, TEAC” value in series [5] came to 1.00 ± 0.02. Further, the half-inhibitory concentration (IC50) in series [5] is 18600 ± 1400 nM; in series [7], 138 ± 2 nM; in series [8], 342 ± 15 nM. Further, the “FRAP (Fe3+-reducing activity), TE” value in series [6] is reported as 0.48 ± 0.04.
In the case of `Cc1ccc(NN=C(C(=O)c2ccccc2)C(=O)C(F)(F)F)cc1` [1d, 4,4,4-trifluoro-2-[2-(4-methylphenyl)hydrazinylidene]-1-phenylbutane-1,3-dione], the “radical-scavenging activity in the ABTS assay” value in [9] is on record as “high radical-scavenging activity”.
As to `CC(=O)C(=NNc1ccc(C)cc1)C(=O)C(F)(F)F` [1c, 1,1,1-trifluoro-3-[2-(4-methylphenyl)hydrazinylidene]pentane-2,4-dione], the “radical-scavenging activity in the ABTS assay” value in series [9] was “high radical-scavenging activity”. The “inhibitory activity against CES” value in [10] is given as “moderate inhibitory activity”.
Regarding `C/C(NCCCCNc1c2c(nc3ccccc13)CCCC2)=C(/N=N/c1ccc(C)cc1)C(=O)c1ccccc1` [7a], in series [1], the “Inhibitory activity against CES, % inhibition at 20 μM” value stood at 31.2 ± 2.9%. For the same compound, the inhibition at 20 µM in series [2] amounted to 11.9 ± 0.8%. For the same compound, the “ABTS•+-scavenging activity, TEAC” value in series [5] stood at 0.90 ± 0.04. Also, the IC50 in series [5] was 22300 ± 1900 nM; in series [7] it was 36 nM and 35.9 nM; in series [8], 889 ± 7 nM. The “FRAP (Fe3+-reducing activity), TE” value in [6] amounted to 0.43 ± 0.04. The “Metal-chelating ability for Cu2+, Fe2+ and Zn2+” value in [11] is recorded as “metal-chelating ability”.
In the case of `C/C(NCCCCNc1c2c(nc3ccccc13)CCCC2)=C(/N=N/c1ccc(C)cc1)C(=O)C(F)(F)F` [8a], in [1], the “Inhibitory activity against CES, % inhibition at 20 μM” value is on record as 28.6 ± 4.0%. Further, in series [2], the inhibition at 20 µM is 13.7 ± 1.2%. The “ABTS•+-scavenging activity, TEAC” value in series [5] was 1.13 ± 0.05. Also, the results for the concentration for half-maximal inhibition (IC50) in series [5], in [7] and in series [8] were 17700 ± 1300 nM, 246 ± 16 nM and 1690 ± 50 nM, respectively. Besides, the “FRAP (Fe3+-reducing activity), TE” value in series [6] came to 0.06 ± 0.01. Moreover, in [11], the “Metal-chelating ability for Cu2+, Fe2+ and Zn2+” value is given as “metal-chelating ability”.

The Ki is the equilibrium dissociation constant of an inhibitor or competing ligand from its target. One may read the IC50 as the concentration needed to halve the response being measured.
